This note sets out measurements from patent US20240400555A1 (Initial Therapeutics, Inc., priority 2023, published 2024).

By IC50 is commonly meant the concentration at which inhibition is half-maximal.

A value given as a limit tells only on which side of the number the result lay.

This assay deals with MV-4-11 cells. Briefly: Cell Viability Assay in MV-4-11 Cells. In kind it is cell-based. Conditions: Homo sapiens, MV4-11, 72 h, MV-4-11 cells, 72 h, Cell-Titer Glo; read-out: IC50. The procedure, abridged:
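MV-4-11 cells at 7,000/well in IMDM with 10% FBS, exposed to compound for 72 h. Viability by CellTiter-Glo luminescence, normalized to DMSO as 100%, fitted with a four-parameter curve.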
Turning to `COc1ccc2c(N(C(=O)c3ccc(-c4cn(C)nn4)cc3)[C@@H]3CCCNC3)nccc2c1Cl` [Example 869, N-(5-chloro-6-methoxy-1-isoquinolyl)-4-(1-methyltriazol-4-yl)-N-[(3R)-3-piperidyl]benzamide], the IC50 was found to be 1.4 µM.
Then `COc1ccc(C)c2c(N(C(=O)c3ccc(-c4nnc(C)s4)cn3)[C@@H]3CCCNC3)nccc12` [Example 870, N-(5-methoxy-8-methyl-1-isoquinolyl)-5-(5-methyl-1,3,4-thiadiazol-2-yl)-N-[(3R)-3-piperidyl]pyridine-2-carboxamide], with 1.9 µM; and `COc1ccc(C)c2c(N(C(=O)c3ccc(-c4nnc(C)s4)cc3)[C@@H]3CCCNC3)nccc12` [Example 871, N-(5-methoxy-8-methyl-1-isoquinolyl)-4-(5-methyl-1,3,4-thiadiazol-2-yl)-N-[(3R)-3-piperidyl]benzamide], with 0.72 µM.
The value for `COc1ccc(C)c2c(N(C(=O)c3ccc(-c4cn(C)nn4)cc3)[C@@H]3CCCNC3)nccc12` [Example 872, N-(5-methoxy-8-methyl-1-isoquinolyl)-4-(1-methyltriazol-4-yl)-N-[(3R)-3-piperidyl]benzamide] was 2.1 µM.
Take `COc1ccc(F)c2c(N(C(=O)c3ccc(-c4cn(C)nn4)cc3)[C@@H]3CCCNC3)nccc12` [Example 873, N-(8-fluoro-5-methoxy-1-isoquinolyl)-4-(1-methyltriazol-4-yl)-N-[(3R)-3-piperidyl] benzamide]: the IC50 is above 5.2 µM.
Then `COc1c(F)ccc2c(N(C(=O)c3ccc(-c4cn(C)nn4)cc3F)[C@@H]3CCCNC3)nccc12` [Example 874, 2-fluoro-N-(6-fluoro-5-methoxy-1-isoquinolyl)-4-(1-methyltriazol-4-yl)-N-[(3R)-3-piperidyl] benzamide], with 4 µM; and `COCc1nnc(-c2ccc(C(=O)N(c3nccc4scc(C)c34)[C@@H]3CCCNC3)cc2)s1` [Example 875, 4-[5-(methoxymethyl)-1,3,4-thiadiazol-2-yl]-N-(3-methylthieno[3,2-c]pyridin-4-yl)-N-[(3R)-3-piperidyl]benzamide], with 0.086 µM.
The value for `COCCCc1nnc(-c2ccc(C(=O)N(c3nccc4scc(C)c34)[C@@H]3CCCNC3)cc2)s1` [Example 876, 4-[5-(3-methoxypropyl)-1,3,4-thiadiazol-2-yl]-N-(3-methylthieno[3,2-c]pyridin-4-yl)-N-[(3R)-3-piperidyl]benzamide] was 0.29 µM; that for `Cc1nnc(-c2ccc(C(=O)N(c3nccc4c(C)ccc(C)c34)[C@@H]3CCCNC3)nc2)s1` [Example 877, N-(5,8-dimethyl-1-isoquinolyl)-5-(5-methyl-1,3,4-thiadiazol-2-yl)-N-[(3R)-3-piperidyl]pyridine-2-carboxamide] was 0.79 µM; that for `Cc1nnc(-c2ccc(C(=O)N(c3nccc4c(C)ccc(C)c34)[C@@H]3CCCNC3)cc2)s1` [Example 878, N-(5,8-dimethyl-1-isoquinolyl)-4-(5-methyl-1,3,4-thiadiazol-2-yl)-N-[(3R)-3-piperidyl]benzamide] was 0.56 µM.
Then `Cc1cccc2ccnc(N(C(=O)c3ccc(-c4nnc(CCC#N)s4)cc3F)[C@@H]3CCCNC3)c12` [Example 879, 4-[5-(2-cyanoethyl)-1,3,4-thiadiazol-2-yl]-2-fluoro-N-(8-methyl-1-isoquinolyl)-N-[(3R)-3-piperidyl]benzamide], with 0.11 µM.
Consider `Cc1cccc2ccnc(N(C(=O)c3ccc(-c4nnc(CCC#N)s4)cc3)[C@@H]3CCCNC3)c12` [Example 880, 4-[5-(2-cyanoethyl)-1,3,4-thiadiazol-2-yl]-N-(8-methyl-1-isoquinolyl)-N-[(3R)-3-piperidyl]benzamide], for which the IC50 was 0.18 µM.
Then `Cc1csc2ccnc(N(C(=O)c3ccc(-c4cn(CCC#N)nn4)cc3F)[C@@H]3CCCNC3)c12` [Example 881, 4-[1-(2-cyanoethyl)triazol-4-yl]-2-fluoro-N-(3-methylthieno[3,2-c]pyridin-4-yl)-N-[(3R)-3-piperidyl]benzamide], with 0.15 µM.
